Test results taken from US20250206761A1, “HALOINDOLE MACROCYCLIC COMPOUNDS FOR THE TREATMENT OF CANCER” (Hoffmann-La Roche Inc., priority 2022, published 2025).

Experiments:
[1] = tested on: cryopreserved suspension hepatocytes from human; experiment: Human hepatocyte stability assay; type: in vitro ADME; settings: for Clearance Category: human hepatocytes; for CL_hep (Human): human hepatocytes 1×10^6 cells/mL, 37° C.
Protocol: The hepatocyte stability assay measures the rate of disappearance of a compound from incubations with cryopreserved suspension hepatocytes from human. Positive controls, including Midazolam, Raloxifene and Dextromethorphan, are included in every experiment. Incubations consist of […] tested compound and suspension of human hepatocytes (1×10^6 cells/mL) in supplemented Williams' E Medium with 10% FBS and 0.5% Penicillin-streptomycin. The hepatocyte suspension was incubated with intermittent shaking 900 rpm at 37° C., in a 5% CO2 incubator. The reaction was stopped by adding methanol containing internal standard (2 μM Tolbutamide) at 2, 10, 20, 40, 60 and 120 minutes after compound addition, depletion of the parent compound was monitored by LC-MS/MS analysis.

[2] = GSH reaction rates (inherent GSH reactivity); type: in vitro ADME; set-up: half-life: dose or concentration left out as unconfirmed; settings: for half-life: buffer, pH 7.4
Protocol: For inherent GSH reactivity determination, compounds […] were incubated at 37° C. with and without 5 mM GSH for 0, 0.5, 1, 2, 4 and 6 h in 100 mM potassium phosphate buffer at pH 7.4. At the end of the designated time points, samples were quenched with acetonitrile containing 10 mM N-ethylmaleimide and an internal standard. Quenched samples were centrifuged, and supernatants were analyzed by LC-MS/MS for compound quantification.

| SMILES | Clearance Category [1] | CL_hep (Human) [1] | T1/2(hour) in GSH ([2]; 5 mM GSH, 37° C., 100 mM potassium phosphate buffer pH 7.4, up to 6 h) | Remaining at 6 hr in GSH (%) ([2]; 5 mM GSH, 37° C., pH 7.4, 6 hr) | conjugation with GSH [2] | half-life [2] |
| --- | --- | --- | --- | --- | --- | --- |
| CCn1c(-c2cc(N3CCN(CC(F)(F)F)CC3)cnc2[C@H](C)OC)c2c3cc(c(F)cc31)-c1csc(n1)C[C@H](NC(=O)[C@H](C(C)C)N1CCC3(CN(C(=O)[C@H](F)Cl)C3)C1=O)C(=O)N1CCC[C@H](N1)C(=O)OCC(C)(C)C2 (atropisomer, axis not shown; (M)) [Example 37, (2S)-2-[2-[(2R)-2-chloro-2-fluoro-acetyl]-5-oxo-2,6-diazaspiro[3.4]octan-6-yl]-N-[(7S,13S)-21-ethyl-24-fluoro-(20M)-20-[2-[(1S)-1-methoxyethyl]-5-[4-(2,2,2-trifluoroethyl)piperazin-1-yl]-3-pyridyl]-17,17-dimethyl-8,14-dioxo-15-oxa-4-thia-9,21,27,28-tetrazapentacyclo[17.5.2.1^2,5.1^9,13.0^22,26]octacosa-1(25),2,5(28),19,22(26),23-hexaen-7-yl]-3-methyl-butanamide] | low (CL_hep (mL/min/kg)<6.96 is low clearance) | 2.4 mL/min/kg | stable (If % depletion after 6 hour incubation is less than 20%, compounds were reported as stable) | 100% |  |  |
| CC(C)[C@@H](C(=O)N[C@H]1Cc2cc(O)cc(c2)-c2ccc3c(C(C)(C)C#N)cn(c3c2)CC(C)(C)COC(=O)[C@@H]2CCCN(N2)C1=O)N1CCC2(CN(C(=O)CCl)C2)C1=O [RM44, reference compound] | medium (16.24>CL_hep (mL/min/kg)>6.96 is medium clearance) | 14.7 mL/min/kg |  |  | formed conjugation with GSH | 534 min |
| CC(C)[C@@H](C(=O)N[C@H]1Cc2cc(O)cc(c2)-c2ccc3c(C(C)(C)C#N)cn(c3c2)CC(C)(C)COC(=O)[C@@H]2CCCN(N2)C1=O)N1CCCC2(CCN(C(=O)CCl)C2)C1=O (stereo partly shown) [RM351, reference compound] |  |  |  |  | formed conjugation with GSH | 258 min |
